Patent US20260078120A1, “SUBSTITUTED PYRIDOPYRIMIDINONES” (MIRATI THERAPEUTICS, INC., priority 2022, published 2026)

Tests used:
[1] = system: SKBR3 (PI3Kα wild type) cells; test: CellTiter-Glo 2.0 luminescent cell viability assay, 72 hours, SKBR3 cells; assay type: cell-based; settings: Homo sapiens, SK-BR-3, 72 h, SKBR3 (PI3Kα wild type) cells, CellTiter-Glo, approximately 72 hours; read-out: SKBR3 (WT) Viability IC50
Summary of the method: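 Viability measured via CTG luminescence following roughly 72 hours of compound exposure at 37° C. Dosing used a 10 um starting concentration diluted 1:4 over 10 points; percent-of-vehicle data fitted with a variable-slope four-parameter model for IC50.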

[2] = system: T47D (PI3Kα H1047R mutant) cells; test: CellTiter-Glo 2.0 luminescent cell viability assay, 72 hours, T47D cells; assay type: cell-based; settings: Homo sapiens, T47D, 72 h, T47D (PI3Kα H1047R mutant) cells, CellTiter-Glo, approximately 72 hours; read-out: T47D (H1047R mutant) Viability IC50
Summary of the method: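 Viability was measured by CellTiter-Glo 2.0 luminescence after approximately 72 h of compound exposure at 37° C. Plating was 1000 cells per well the day before dosing, with ten 1:4 dilutions from a 10 µM top concentration. Values as percent of vehicle were fitted by variable-slope log(inhibitor) regression to give IC50.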

Row | Compound | IC50 [1] [nM] | IC50 [2] [nM]
1 | Cc1cc([C@@H](C)Nc2ccccc2C(=O)O)c2nc(NCC3CC(F)(F)C3)c(C#N)c(=O)n2c1 [Example 11-198, (R)-2-((1-(3-cyano-2-(((3,3-difluorocyclobutyl)methyl)amino)-7-methyl-4-oxo-4H-pyrido[1,2-a]pyrimidin-9-yl)ethyl)amino)benzoic acid] | > 10000 | 232
2 | Cc1cc([C@@H](C)Nc2ccccc2C(=O)O)c2nc(NCC3CC(F)(F)C3)c(C)c(=O)n2c1 [Example 11-199, (R)-2-((1-(2-(((3,3-difluorocyclobutyl)methyl)amino)-3,7-dimethyl-4-oxo-4H-pyrido[1,2-a]pyrimidin-9-yl)ethyl)amino)benzoic acid] | > 10000 | 498
3 | Cc1cc([C@@H](C)Nc2ccccc2C(=O)O)c2nc(N3CC4(CCC4(F)F)C3)c(C#N)c(=O)n2c1 [Example 11-200, (R)-2-((1-(3-cyano-2-(5,5-difluoro-2-azaspiro[3.3]heptan-2-yl)-7-methyl-4-oxo-4H-pyrido[1,2-a]pyrimidin-9-yl)ethyl)amino)benzoic acid] | > 10000 | 129
4 | Cc1cc([C@@H](C)Nc2ccccc2C(=O)O)c2nc(N3CC4(CCC4(F)F)C3)c(C)c(=O)n2c1 [Example 11-201, (R)-2-((1-(2-(5,5-difluoro-2-azaspiro[3.3]heptan-2-yl)-3,7-dimethyl-4-oxo-4H-pyrido[1,2-a]pyrimidin-9-yl)ethyl)amino)benzoic acid] | > 10000 | 117
5 | Cc1cc([C@@H](C)Nc2ccccc2C(=O)O)c2nc(N3CC4(C3)CC(F)(F)C4)c(C)c(=O)n2c1 [Example 11-202, (R)-2-((1-(2-(6,6-difluoro-2-azaspiro[3.3]heptan-2-yl)-3,7-dimethyl-4-oxo-4H-pyrido[1,2-a]pyrimidin-9-yl)ethyl)amino)benzoic acid] | > 10000 | 304
6 | Cc1cc([C@@H](C)Nc2ccccc2C(=O)O)c2nc(N(C)CC3CC3)c(C)c(=O)n2c1 [Example 11-203, (R)-2-((1-(2-((cyclopropylmethyl)(methyl)amino)-3,7-dimethyl-4-oxo-4H-pyrido[1,2-a]pyrimidin-9-yl)ethyl)amino)benzoic acid] | > 10000 | 356
7 | Cc1cc([C@@H](C)Nc2ccccc2C(=O)O)c2nc(NCC3COC3)c(C#N)c(=O)n2c1 [Example 11-204, (R)-2-((1-(3-cyano-7-methyl-2-((oxetan-3-ylmethyl)amino)-4-oxo-4H-pyrido[1,2-a]pyrimidin-9-yl)ethyl)amino)benzoic acid] | > 10000 | 1600
8 | Cc1cc([C@@H](C)Nc2ccccc2C(=O)O)c2nc(NCC3COC3)c(C)c(=O)n2c1 [Example 11-205, (R)-2-((1-(3,7-dimethyl-2-((oxetan-3-ylmethyl)amino)-4-oxo-4H-pyrido[1,2-a]pyrimidin-9-yl)ethyl)amino)benzoic acid] | > 10000 | 1560
9 | Cc1cc([C@@H](C)Nc2ccc(Cl)nc2C(=O)O)c2nc(NCC3CC3)c(C#N)c(=O)n2c1 [Example 11-206, (R)-6-chloro-3-((1-(3-cyano-2-((cyclopropylmethyl)amino)-7-methyl-4-oxo-4H-pyrido[1,2-a]pyrimidin-9-yl)ethyl)amino)picolinic acid] | > 10000 | 132
10 | Cc1cc([C@@H](C)Nc2ccccc2C(=O)O)c2nc(NCC3CC3)c(C)c(=O)n2c1 [Example 11-207, (R)-2-((1-(2-((cyclopropylmethyl)amino)-3,7-dimethyl-4-oxo-4H-pyrido[1,2-a]pyrimidin-9-yl)ethyl)amino)benzoic acid] | > 10000 | 342
11 | Cc1cc([C@@H](C)Nc2ccccc2C(=O)O)c2nc(N3CCC4(CC3)COC4)c(C#N)c(=O)n2c1 [Example 11-208, (R)-2-((1-(3-cyano-7-methyl-4-oxo-2-(2-oxa-7-azaspiro[3.5]nonan-7-yl)-4H-pyrido[1,2-a]pyrimidin-9-yl)ethyl)amino)benzoic acid] | > 10000 | 469
12 | Cc1cc([C@@H](C)Nc2ccccc2C(=O)O)c2nc(N3CCC[C@@H](C(F)(F)F)C3)c(C#N)c(=O)n2c1 [Example 11-209, 2-(((R)-1-(3-cyano-7-methyl-4-oxo-2-((R)-3-(trifluoromethyl)piperidin-1-yl)-4H-pyrido[1,2-a]pyrimidin-9-yl)ethyl)amino)benzoic acid] | > 10000 | 439
13 | Cc1cc([C@@H](C)Nc2ccccc2C(=O)O)c2nc(N3CCC[C@H](C(F)(F)F)C3)c(C#N)c(=O)n2c1 [Example 11-210, 2-(((R)-1-(3-cyano-7-methyl-4-oxo-2-((S)-3-(trifluoromethyl)piperidin-1-yl)-4H-pyrido[1,2-a]pyrimidin-9-yl)ethyl)amino)benzoic acid] | > 10000 | 361
14 | Cc1cc([C@@H](C)Nc2ccccc2C(=O)O)c2nc(N3CCC[C@@H](C(F)(F)F)C3)c(C)c(=O)n2c1 [Example 11-211, 2-(((R)-1-(3,7-dimethyl-4-oxo-2-((R)-3-(trifluoromethyl)piperidin-1-yl)-4H-pyrido[1,2-a]pyrimidin-9-yl)ethyl)amino)benzoic acid] | > 10000 | 520
15 | Cc1cc([C@@H](C)Nc2ccccc2C(=O)O)c2nc(N3CCC[C@H](C(F)(F)F)C3)c(C)c(=O)n2c1 [Example 11-212, 2-(((R)-1-(3,7-dimethyl-4-oxo-2-((S)-3-(trifluoromethyl)piperidin-1-yl)-4H-pyrido[1,2-a]pyrimidin-9-yl)ethyl)amino)benzoic acid] | > 10000 | 1360
16 | Cc1cc([C@@H](C)Nc2ccccc2C(=O)O)c2nc(N3CCC4(CC3)C(F)(F)C4(F)F)c(C)c(=O)n2c1 [Example 11-213, (R)-2-((1-(3,7-dimethyl-4-oxo-2-(1,1,2,2-tetrafluoro-6-azaspiro[2.5]octan-6-yl)-4H-pyrido[1,2-a]pyrimidin-9-yl)ethyl)amino)benzoic acid] | > 10000 | 257
17 | Cc1cc([C@@H](C)Nc2ccccc2C(=O)O)c2nc(N3C4CCC3c3ccccc34)c(C#N)c(=O)n2c1 [Example 11-214, 2-(((1R)-1-(3-cyano-7-methyl-4-oxo-2-(1,2,3,4-tetrahydro-1,4-epiminonaphthalen-9-yl)-4H-pyrido[1,2-a]pyrimidin-9-yl)ethyl)amino)benzoic acid] | > 10000 | 262
18 | Cc1cc([C@@H](C)Nc2ccccc2C(=O)O)c2nc(N3C4CCC3c3ccccc34)c(C)c(=O)n2c1 [Example 11-215, 2-(((1R)-1-(3,7-dimethyl-4-oxo-2-(1,2,3,4-tetrahydro-1,4-epiminonaphthalen-9-yl)-4H-pyrido[1,2-a]pyrimidin-9-yl)ethyl)amino)benzoic acid] | > 10000 | 303
19 | Cc1cc([C@@H](C)Nc2ccccc2C(=O)O)c2nc(N3CCn4c(nnc4C(F)(F)F)C3)c(C#N)c(=O)n2c1 [Example 11-216, (R)-2-((1-(3-cyano-7-methyl-4-oxo-2-(3-(trifluoromethyl)-5,6-dihydro-[1,2,4]triazolo[4,3-a]pyrazin-7(8H)-yl)-4H-pyrido[1,2-a]pyrimidin-9-yl)ethyl)amino)benzoic acid] | > 10000 | > 10000
20 | Cc1cc([C@@H](C)Nc2ccccc2C(=O)O)c2nc(N3CCn4c(nnc4C(F)(F)F)C3)c(C)c(=O)n2c1 [Example 11-217, (R)-2-((1-(3,7-dimethyl-4-oxo-2-(3-(trifluoromethyl)-5,6-dihydro-[1,2,4]triazolo[4,3-a]pyrazin-7(8H)-yl)-4H-pyrido[1,2-a]pyrimidin-9-yl)ethyl)amino)benzoic acid] | > 10000 | > 10000
21 | Cc1cc([C@@H](C)Nc2ccccc2C(=O)O)c2nc(N3CCC4(CC3)CC4(F)F)c(C#N)c(=O)n2c1 [Example 11-218, (R)-2-((1-(3-cyano-2-(1,1-difluoro-6-azaspiro[2.5]octan-6-yl)-7-methyl-4-oxo-4H-pyrido[1,2-a]pyrimidin-9-yl)ethyl)amino)benzoic acid] | > 10000 | 177
22 | Cc1cc([C@@H](C)Nc2ccccc2C(=O)O)c2nc(N3CCC4(CC3)CC4(F)F)c(C)c(=O)n2c1 [Example 11-219, (R)-2-((1-(2-(1,1-difluoro-6-azaspiro[2.5]octan-6-yl)-3,7-dimethyl-4-oxo-4H-pyrido[1,2-a]pyrimidin-9-yl)ethyl)amino)benzoic acid] | > 10000 | 495
23 | Cc1cc([C@@H](C)Nc2ccccc2C(=O)O)c2nc(N3CCC4(CC3)CC4)c(C#N)c(=O)n2c1 [Example 11-220, (R)-2-((1-(3-cyano-7-methyl-4-oxo-2-(6-azaspiro[2.5]octan-6-yl)-4H-pyrido[1,2-a]pyrimidin-9-yl)ethyl)amino)benzoic acid] | > 10000 | 117
24 | Cc1cc([C@@H](C)Nc2ccccc2C(=O)O)c2nc(N3CCC4(CC3)CC4)c(C)c(=O)n2c1 [Example 11-221, (R)-2-((1-(3,7-dimethyl-4-oxo-2-(6-azaspiro[2.5]octan-6-yl)-4H-pyrido[1,2-a]pyrimidin-9-yl)ethyl)amino)benzoic acid] | > 10000 | 255
25 | Cc1cc([C@@H](C)Nc2ccccc2C(=O)O)c2nc(N3CC4C(C3)C4(F)F)c(C)c(=O)n2c1 (stereo partly drawn) [Example 11-222, 2-(((1R)-1-(2-(6,6-difluoro-3-azabicyclo[3.1.0]hexan-3-yl)-3,7-dimethyl-4-oxo-4H-pyrido[1,2-a]pyrimidin-9-yl)ethyl)amino)benzoic acid] | > 10000 | 156
